Bounds are passed on as bounds.

Experimental findings from US20260137703A1, “2-AMINO-PYRIDO[2,3-D]PYRIMIDIN-7(8H)-ONE AND 7-AMINO-1-PYRIMIDO[4,5-D]PYRIMIDIN-2(1 H)-ONE DERIVATIVES AS EGFR INHIBITORS FOR THE TREATMENT OF CANCER” (Cancer Research Technology Limited, priority 2022, published 2026) are described below.

Experiment [1] deals with T1, Phospho-EGFR (Tyr1068) in A431 cells (Homo sapiens, UniProt P00533).
T1 construct: endogenous in cells; host or cells: A431
As to the kind of experiment: HTRF pEGFR/total EGFR in A431 cells with EGF stimulation. In kind it is cell-based. The settings on record: ratio pEGFR/total EGFR, compound 2.5 hours then 100 ng/ml EGF 30 mins. Put shortly: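 A431 cells were plated at 20,000 per well, allowed 24 h to adhere, then given compound for 2.5 h (0.1% DMSO final). They were then stimulated with 100 ng/ml EGF for 30 min and lysed. HTRF measured Tyr1068-phospho and total EGFR at 665/620 nm, with pEGFR/total EGFR expressed as % of the 0 μM control.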
A general note: Time-resolved FRET reads energy transfer from a long-lived donor to a nearby acceptor.

The target of experiment [2] is CtermHisTag-mEGFR Wild type (Homo sapiens, UniProt P00533). As to the kind of experiment: biochemical.
Sequence of CtermHisTag-mEGFR Wild type (P00533 whole entry): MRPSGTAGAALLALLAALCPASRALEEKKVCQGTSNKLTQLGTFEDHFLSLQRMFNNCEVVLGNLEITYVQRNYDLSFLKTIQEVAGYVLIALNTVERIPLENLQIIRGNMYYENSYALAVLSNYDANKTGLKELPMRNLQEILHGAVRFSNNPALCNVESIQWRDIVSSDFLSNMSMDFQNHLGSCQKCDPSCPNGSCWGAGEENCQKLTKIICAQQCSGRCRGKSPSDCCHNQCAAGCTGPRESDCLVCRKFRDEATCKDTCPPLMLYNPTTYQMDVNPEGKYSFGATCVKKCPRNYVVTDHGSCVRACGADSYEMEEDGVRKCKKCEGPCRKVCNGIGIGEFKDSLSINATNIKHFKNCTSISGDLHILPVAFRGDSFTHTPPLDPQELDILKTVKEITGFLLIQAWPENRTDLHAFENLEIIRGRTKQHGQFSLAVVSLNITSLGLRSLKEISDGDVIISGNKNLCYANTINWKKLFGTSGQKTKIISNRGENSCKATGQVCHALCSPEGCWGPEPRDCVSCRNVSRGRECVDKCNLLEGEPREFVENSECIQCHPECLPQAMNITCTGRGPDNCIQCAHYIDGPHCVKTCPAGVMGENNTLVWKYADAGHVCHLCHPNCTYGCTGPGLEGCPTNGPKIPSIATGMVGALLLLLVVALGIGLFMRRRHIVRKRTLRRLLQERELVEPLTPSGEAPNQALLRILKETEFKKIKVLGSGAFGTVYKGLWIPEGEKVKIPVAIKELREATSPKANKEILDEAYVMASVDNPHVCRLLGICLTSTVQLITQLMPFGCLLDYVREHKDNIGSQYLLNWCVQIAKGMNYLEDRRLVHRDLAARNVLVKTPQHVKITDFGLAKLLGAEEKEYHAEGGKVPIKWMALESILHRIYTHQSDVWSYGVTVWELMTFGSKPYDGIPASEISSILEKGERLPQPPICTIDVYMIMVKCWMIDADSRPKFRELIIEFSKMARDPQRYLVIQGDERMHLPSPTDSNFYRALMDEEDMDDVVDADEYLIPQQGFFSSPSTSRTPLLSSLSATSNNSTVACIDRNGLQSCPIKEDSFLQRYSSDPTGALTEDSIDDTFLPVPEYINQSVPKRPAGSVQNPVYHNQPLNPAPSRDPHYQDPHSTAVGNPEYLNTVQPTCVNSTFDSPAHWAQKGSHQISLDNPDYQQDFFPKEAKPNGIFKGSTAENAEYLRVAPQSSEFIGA
Experiment [3] addresses T2, Phospho-EGFR (Tyr1068) in H1975 C797S cells (CRISPR-edited EGFR C797S) (Homo sapiens, UniProt P00533, C797S/L858R/T790M).
T2 construct: host or cells: H1975 C797S (CRISPR-edited)
Put plainly: HTRF pEGFR/total EGFR in H1975 C797S cells. In kind it is cell-based. Conditions: ratio pEGFR/total EGFR, compound 3 hours. Put shortly:
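Adhered H1975 C797S cells got compound for 3 h in duplicate at 0.1% DMSO final, then were lysed 30 min at room temperature. HTRF kits quantified phospho-EGFR (Tyr1068) and total EGFR (665/620 nm); results are pEGFR/total EGFR ratio as percent of 0 μM control.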

Experiment [4] has as its target T3, Phospho-EGFR (Tyr1068) in H1975 cells (Homo sapiens, UniProt P00533, L858R/T790M).
T3 construct: host or cells: H1975
Put plainly: HTRF pEGFR/total EGFR in H1975 cells. In kind it is cell-based. Conditions: ratio pEGFR/total EGFR, compound 3 hours. Put shortly:
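H1975 cells (EGFR L858R/T790M) treated 3 h with compound in 0.1% DMSO, in duplicate, 24 h after plating. Lysates assayed by HTRF for pEGFR (Tyr1068) and total EGFR at 665/620 nm; values are pEGFR/total EGFR ratio as percent of 0 μM control.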

T1 sequence (P00533 25-1210): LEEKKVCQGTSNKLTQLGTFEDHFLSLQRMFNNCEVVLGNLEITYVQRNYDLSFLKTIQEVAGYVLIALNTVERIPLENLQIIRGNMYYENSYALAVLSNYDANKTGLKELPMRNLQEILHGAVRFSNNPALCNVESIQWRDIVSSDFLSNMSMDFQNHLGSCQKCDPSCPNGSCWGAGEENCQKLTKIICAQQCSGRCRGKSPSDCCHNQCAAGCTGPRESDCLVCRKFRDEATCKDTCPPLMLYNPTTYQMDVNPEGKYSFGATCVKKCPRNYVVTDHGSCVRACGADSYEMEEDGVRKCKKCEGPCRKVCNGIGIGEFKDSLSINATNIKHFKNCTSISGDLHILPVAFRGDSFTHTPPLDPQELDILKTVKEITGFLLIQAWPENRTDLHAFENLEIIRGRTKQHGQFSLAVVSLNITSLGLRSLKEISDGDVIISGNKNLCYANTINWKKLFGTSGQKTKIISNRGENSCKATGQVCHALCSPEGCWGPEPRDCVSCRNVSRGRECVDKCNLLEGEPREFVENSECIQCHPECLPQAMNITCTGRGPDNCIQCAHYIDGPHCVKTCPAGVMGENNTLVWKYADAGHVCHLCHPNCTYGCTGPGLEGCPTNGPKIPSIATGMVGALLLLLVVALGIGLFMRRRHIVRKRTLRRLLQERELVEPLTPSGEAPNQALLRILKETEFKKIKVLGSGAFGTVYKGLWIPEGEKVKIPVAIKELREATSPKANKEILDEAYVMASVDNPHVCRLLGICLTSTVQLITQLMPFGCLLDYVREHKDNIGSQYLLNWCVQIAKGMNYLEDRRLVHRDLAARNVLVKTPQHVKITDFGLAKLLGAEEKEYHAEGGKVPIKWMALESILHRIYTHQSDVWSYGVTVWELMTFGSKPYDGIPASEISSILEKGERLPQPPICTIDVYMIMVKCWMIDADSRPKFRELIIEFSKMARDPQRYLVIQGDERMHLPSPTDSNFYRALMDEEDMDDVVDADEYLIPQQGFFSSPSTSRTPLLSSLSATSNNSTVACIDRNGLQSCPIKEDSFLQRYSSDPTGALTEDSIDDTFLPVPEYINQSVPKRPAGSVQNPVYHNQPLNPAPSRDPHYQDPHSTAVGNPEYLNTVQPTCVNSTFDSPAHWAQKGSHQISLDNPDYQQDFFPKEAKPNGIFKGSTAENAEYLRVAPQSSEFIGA
T3 sequence (P00533 25-1210 T790M/L858R): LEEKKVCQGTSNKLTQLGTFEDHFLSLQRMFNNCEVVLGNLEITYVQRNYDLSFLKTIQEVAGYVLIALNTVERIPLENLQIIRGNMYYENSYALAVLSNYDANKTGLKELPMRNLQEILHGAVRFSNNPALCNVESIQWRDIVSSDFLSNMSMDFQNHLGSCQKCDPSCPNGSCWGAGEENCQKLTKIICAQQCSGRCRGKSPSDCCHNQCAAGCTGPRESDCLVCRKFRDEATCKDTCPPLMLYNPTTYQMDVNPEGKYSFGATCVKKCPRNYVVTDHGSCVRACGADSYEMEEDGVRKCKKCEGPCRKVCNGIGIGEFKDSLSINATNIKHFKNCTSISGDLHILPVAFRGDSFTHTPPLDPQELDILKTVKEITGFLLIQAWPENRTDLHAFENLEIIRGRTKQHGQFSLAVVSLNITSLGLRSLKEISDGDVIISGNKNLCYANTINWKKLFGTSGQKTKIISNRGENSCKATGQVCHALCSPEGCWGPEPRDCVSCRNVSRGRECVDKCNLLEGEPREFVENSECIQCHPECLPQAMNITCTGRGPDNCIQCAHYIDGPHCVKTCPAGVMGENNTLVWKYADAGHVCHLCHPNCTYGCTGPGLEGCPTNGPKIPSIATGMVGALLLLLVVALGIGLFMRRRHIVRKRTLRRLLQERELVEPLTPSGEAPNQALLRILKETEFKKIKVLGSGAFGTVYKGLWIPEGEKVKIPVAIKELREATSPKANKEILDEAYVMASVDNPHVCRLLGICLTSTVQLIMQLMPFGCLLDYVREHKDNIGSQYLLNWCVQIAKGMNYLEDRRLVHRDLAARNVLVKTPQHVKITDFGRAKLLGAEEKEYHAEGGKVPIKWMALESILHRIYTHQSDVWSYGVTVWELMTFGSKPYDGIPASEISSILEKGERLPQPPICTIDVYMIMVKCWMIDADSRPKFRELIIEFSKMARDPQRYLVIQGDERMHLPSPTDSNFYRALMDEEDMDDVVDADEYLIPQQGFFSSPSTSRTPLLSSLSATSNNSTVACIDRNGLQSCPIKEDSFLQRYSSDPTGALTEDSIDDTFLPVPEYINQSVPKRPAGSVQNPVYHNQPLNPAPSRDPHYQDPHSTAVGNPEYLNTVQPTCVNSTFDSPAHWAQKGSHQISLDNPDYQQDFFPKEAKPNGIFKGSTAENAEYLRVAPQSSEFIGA
T2 sequence (P00533 25-1210 T790M/C797S/L858R): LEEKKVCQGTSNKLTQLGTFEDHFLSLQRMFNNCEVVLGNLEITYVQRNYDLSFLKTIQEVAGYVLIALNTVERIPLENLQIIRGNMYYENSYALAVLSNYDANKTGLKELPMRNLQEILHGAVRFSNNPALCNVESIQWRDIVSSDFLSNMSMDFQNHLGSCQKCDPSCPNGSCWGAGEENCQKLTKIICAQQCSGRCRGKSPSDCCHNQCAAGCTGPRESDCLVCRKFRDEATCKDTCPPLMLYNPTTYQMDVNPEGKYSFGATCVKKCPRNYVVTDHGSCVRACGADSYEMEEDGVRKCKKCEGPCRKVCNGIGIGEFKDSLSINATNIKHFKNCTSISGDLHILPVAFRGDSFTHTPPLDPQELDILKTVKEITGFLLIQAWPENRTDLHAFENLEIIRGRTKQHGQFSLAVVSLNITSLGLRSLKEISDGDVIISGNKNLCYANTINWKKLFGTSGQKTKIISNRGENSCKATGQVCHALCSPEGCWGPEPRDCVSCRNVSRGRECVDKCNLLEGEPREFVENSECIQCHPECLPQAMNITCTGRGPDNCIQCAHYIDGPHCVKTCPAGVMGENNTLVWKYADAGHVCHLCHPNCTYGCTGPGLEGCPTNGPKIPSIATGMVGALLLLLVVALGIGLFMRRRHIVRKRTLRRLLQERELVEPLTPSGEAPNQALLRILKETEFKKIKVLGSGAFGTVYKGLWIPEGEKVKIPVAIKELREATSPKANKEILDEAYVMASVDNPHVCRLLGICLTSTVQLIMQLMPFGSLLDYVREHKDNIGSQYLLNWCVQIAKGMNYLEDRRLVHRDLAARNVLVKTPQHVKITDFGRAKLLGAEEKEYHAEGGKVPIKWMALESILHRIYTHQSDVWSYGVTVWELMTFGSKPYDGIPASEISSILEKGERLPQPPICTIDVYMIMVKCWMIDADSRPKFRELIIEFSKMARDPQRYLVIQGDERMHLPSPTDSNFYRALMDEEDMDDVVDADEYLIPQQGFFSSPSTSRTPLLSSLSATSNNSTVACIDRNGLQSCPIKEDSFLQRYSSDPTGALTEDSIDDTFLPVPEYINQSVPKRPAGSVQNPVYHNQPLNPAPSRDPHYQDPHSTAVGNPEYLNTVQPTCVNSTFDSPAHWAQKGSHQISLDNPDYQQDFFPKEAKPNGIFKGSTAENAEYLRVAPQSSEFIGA

As usually defined, the IC50 is the concentration needed to halve the response being measured. Consider `C#Cc1c(-c2ccccc2Cl)c(=O)n(C)c2nc(Nc3ccc(N4CCN(C)CC4)cc3OC)ncc12` [Example 127, 6-(2-chlorophenyl)-5-ethynyl-2-{[2-methoxy-4-(4-methylpiperazin-1-yl)phenyl]amino}-8-methylpyrido[2,3-d]pyrimidin-7-one], for which the IC50 in experiment [1] is 500 to 1000 nM; in experiment [2] it was under 1000 nM; in experiment [3] it was 1000 to 3000 nM; in experiment [4], 500 to 1000 nM.
Regarding `C#Cc1cc(=O)n(C)c2nc(Nc3ccc(N4CCN(C)CC4)c(OCCC4CCCC4)c3)ncc12` [Example 209, 2-((3-(2-Cyclopentylethoxy)-4-(4-methylpiperazin-1-yl)phenyl)amino)-5-ethynyl-8-methylpyrido[2,3-d]pyrimidin-7(8H)-one], the IC50 in experiment [1] was under 500 nM; in experiment [2], under 1000 nM; in experiment [3], under 500 nM; in experiment [4], under 500 nM.
Turning to `C#Cc1cc(=O)n2c3nc(ncc13)Nc1ccc(N3CCN(C)CC3)c(c1)CN(C)CCC2` [Example 226, 1^5-Ethynyl-5-methyl-3^4-(4-methylpiperazin-1-yl)-1^7,1^8-dihydro-2,5-diaza-1(2,8)-pyrido[2,3-d]pyrimidina-3(1,3)-benzenacyclooctaphan-1^7-one], the IC50 is over 3000 nM in experiment [1], under 1000 nM in experiment [2], under 500 nM in experiment [3] and under 500 nM in experiment [4].
For `C#Cc1cc(=O)n2c3nc(ncc13)Nc1ccc(N3CCN(C)CC3)c(c1)NCCCC2` [Example 198, 1^5-Ethynyl-3^4-(4-methylpiperazin-1-yl)-1^7, 1^8-dihydro-2,4-diaza-1(2,8)-pyrido[2,3-d]pyrimidina-3(1,3)-benzenacyclooctaphan-1^7-one], the IC50 was over 3000 nM in experiment [1], over 10000 nM in experiment [2], under 500 nM in experiment [3] and 500 to 1000 nM in experiment [4].
For the molecule `C#Cc1cc(=O)n2c3nc(ncc13)Nc1ccc(N3CCN(C)CC3)c(c1)CNCCC2` [Example 199, 1^5-Ethynyl-3^4-(4-methylpiperazin-1-yl)-1^7,1^8-dihydro-2,5-diaza-1(2,8)-pyrido[2,3-d]pyrimidina-3(1,3)-benzenacyclooctaphan-1^7-one], the IC50 in experiment [1] was over 3000 nM; in experiment [2] it was over 10000 nM; in experiment [3] it was over 3000 nM; in experiment [4], over 3000 nM.
Regarding `C#Cc1cc(=O)n([C@H]2CC[C@@H](NC(=O)CC(=O)NC)CC2)c2nc(Nc3ccc(N4CCN(C)CC4)cc3)ncc12` [Example 94, N-Methyl-N′-[(1s,4s)-4-(5-ethynyl-2-{[4-(4-methylpiperazin-1-yl)phenyl]amino}-7-oxopyrido[2,3-d]pyrimidin-8-yl)cyclohexyl]propanediamide], the IC50 in experiment [1] was over 3000 nM; in experiment [2], 1000 to 10000 nM; in experiment [3], 500 to 1000 nM; in experiment [4], 500 to 1000 nM.
With `C#Cc1cc(=O)n2c3nc(ncc13)Nc1ccc(N3CCN(C)CC3)c(c1)N(C)C(=O)CCC2` [Example 225, 1^5-Ethynyl-4-methyl-3^4-(4-methylpiperazin-1-yl)-1^7,1^8-dihydro-2,4-diaza-1(2,8)-pyrido[2,3-d]pyrimidina-3(1,3)-benzenacyclooctaphane-1^7,5-dione], the IC50 in experiment [1] is over 3000 nM; in experiment [2], over 10000 nM; in experiment [3] it was 1000 to 3000 nM; in experiment [4], 1000 to 3000 nM.
For `C#Cc1cc(=O)n([C@H]2CC[C@H](NC(C)=O)CC2)c2nc(Nc3ccc(N4CCN(C)CC4)cc3)ncc12` [Example 87, N-[(1r,4r)-4-(5-Ethynyl-2-{[4-(4-methylpiperazin-1-yl)phenyl]amino}-7-oxopyrido[2,3-d]pyrimidin-8-yl)cyclohexyl]acetamide], the IC50 in experiment [1] was over 3000 nM; in experiment [2], under 1000 nM; in experiment [3], under 500 nM; in experiment [4], under 500 nM.
In the case of `C#Cc1cc(=O)n(C)c2nc(Nc3ccc(N4CCN(C)CC4)c(OCCC4CCCCC4)c3)ncc12` [Example 213, 2-((3-(2-Cyclohexylethoxy)-4-(4-methylpiperazin-1-yl)phenyl)amino)-5-ethynyl-8-methylpyrido[2,3-d]pyrimidin-7(8H)-one], the IC50 was 1000 to 3000 nM in experiment [1], under 1000 nM in experiment [2], 500 to 1000 nM in experiment [3] and under 500 nM in experiment [4].
For `C#Cc1c(-c2cccs2)c(=O)n(C)c2nc(Nc3ccc(N4CCN(C)CC4)cc3)ncc12` [Example 150, 5-ethynyl-8-methyl-2-{[4-(4-methylpiperazin-1-yl)phenyl]amino}-6-(thiophen-2-yl)pyrido[2,3-d]pyrimidin-7-one] the same measures were over 3000 nM, 1000 to 10000 nM, 1000 to 3000 nM and over 3000 nM.
For `C#Cc1cc(=O)n(C(C)C)c2nc(Nc3ccc(N4CCN(C)CC4)cc3)ncc12` [Example 76, 5-Ethynyl-8-isopropyl-2-{[4-(4-methylpiperazin-1-yl)phenyl]amino}pyrido[2,3-d]pyrimidin-7-one], the IC50 in experiment [1] is over 3000 nM; in experiment [2], under 1000 nM; in experiment [3], 500 to 1000 nM; in experiment [4] it was under 500 nM.
Take `C#Cc1c(C)c(=O)n(Cc2ccno2)c2nc(Nc3ccc(N4CCN(C)CC4)cc3)ncc12` [Example 113, 5-ethynyl-6-methyl-2-{[4-(4-methylpiperazin-1-yl)phenyl]amino}-8-(1,2-oxazol-5-ylmethyl)pyrido[2,3-d]pyrimidin-7-one]: the IC50 lay in the range of 1000 to 3000 nM in experiment [1], 1000 to 10000 nM in experiment [2], 1000 to 3000 nM in experiment [3] and 1000 to 3000 nM in experiment [4].
On to `C#Cc1cc(=O)n2c3nc(ncc13)Nc1ccc(N3CCN(C)CC3)c(c1)OCCCCCC2` [Example 230, 1^5-ethynyl-3^4-(4-methylpiperazin-1-yl)-1^7,1^8-dihydro-4-oxa-2-aza-1(2,8)-pyrido[2,3-d]pyrimidina-3(1,3)-benzenacyclodecaphan-1^7-one], for which the IC50 in experiment [1] was 1000 to 3000 nM; in experiment [2], under 1000 nM; in experiment [3] it was under 500 nM; in experiment [4], under 500 nM.
Consider `C#Cc1c(C)c(=O)n(Cc2ccncc2)c2nc(Nc3ccc(N4CCN(C)CC4)cc3)ncc12` [Example 179, 5-Ethynyl-6-methyl-2-{[4-(4-methylpiperazin-1-yl)phenyl]amino}-8-(pyridin-4-ylmethyl)pyrido[2,3-d]pyrimidin-7-one], for which the IC50 was over 3000 nM in experiment [1], 1000 to 10000 nM in experiment [2], 1000 to 3000 nM in experiment [3] and 1000 to 3000 nM in experiment [4].
Turning to `C#Cc1cc(=O)n(C2CCCC2)c2nc(Nc3cccc(N(C)[C@H]4C[C@H](CS(C)(=O)=O)C4)c3)ncc12` [Example 205], the IC50 in experiment [1] is over 3000 nM; in experiment [2] it was under 1000 nM; in experiment [3] it was over 3000 nM; in experiment [4], over 3000 nM.
For the molecule `C#Cc1cc(=O)n(-c2ccc(NC(=O)CC)cc2)c2nc(Nc3ccccc3OC)ncc12` [Example 65, N-(4-(5-Ethynyl-2-((2-methoxyphenyl)amino)-7-oxopyrido[2,3-d]pyrimidin-7(8H)-yl)phenyl)propionamide], the IC50 in experiment [1] was over 3000 nM; in experiment [2], 1000 to 10000 nM; in experiment [3], over 3000 nM; in experiment [4] it was over 3000 nM.
In the case of `C#Cc1cc(=O)n2c3nc(ncc13)Nc1ccc(N3CCN(C)CC3)c(c1)OCCCCC2` [Example 200, 1^5-Ethynyl-34-(4-methylpiperazin-1-yl)-1^7,1^8-dihydro-4-oxa-2-aza-1(2,8)-pyrido[2,3-d]pyrimidina-3(1,3)-benzenacyclononaphan-17-one], the IC50 was under 500 nM in experiment [1], under 1000 nM in experiment [2], under 500 nM in experiment [3] and under 500 nM in experiment [4].
Take `C#Cc1cc(=O)n(C2CC(=O)N(C)C2)c2nc(Nc3ccc(N4CCN(C)CC4)cc3)ncc12` (centres unmarked) [Example 117, 4-(5-ethynyl-2-{[4-(4-methylpiperazin-1-yl)phenyl]amino}-7-oxopyrido[2,3-d]pyrimidin-8-yl)-1-methylpyrrolidin-2-one]: the IC50 in experiment [1] is over 3000 nM; in experiment [2], over 10000 nM; in experiment [3], over 3000 nM; in experiment [4] it was over 3000 nM.
`C#Cc1cc(=O)n2c3nc(ncc13)Nc1cccc(c1)OCCC2` [Example 186, 1^5-ethynyl-1^7,1^8-dihydro-4-oxa-2-aza-1(2,8)-pyrido[2,3-d]pyrimidina-3(1,3)-benzenacycloheptaphan-1^7-one]: the IC50 was over 3000 nM in experiment [1], over 10000 nM in experiment [2], over 3000 nM in experiment [3] and over 3000 nM in experiment [4].
With `C#Cc1c(C)c(=O)n2c3nc(ncc13)Nc1ccc(N3CCN(C)CC3)c(c1)OCCCC2` [Example 194, 1^5-Ethynyl-1^6-methyl-3^4-(4-methylpiperazin-1-yl)-1^7,1^8-dihydro-4-oxa-2-aza-1(2,8)-pyrido [2,3-d]pyrimidina-3(1,3)-benzenacyclooctaphan-1^7-one], the IC50 in experiment [1] was under 500 nM; in experiment [2], under 1000 nM; in experiment [3], under 500 nM; in experiment [4] it was under 500 nM.
